Test results reported in the METLIN SMRT retention time set (Domingo-Almenara et al. 2019).

Test: gradient 5% acetonitrile 3 min, to 50% in 2 min, to 85% in 15 min, held 3 min, 100 µL/min
Settings: column: Zorbax Extend-C18 2.1 x 50 mm; eluents: water / acetonitrile, 0.1% formic acid
In short: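 Standards, all pure, were combined into mixtures of ~100 molecules and run at 100 μL/min on a Zorbax Extend-C18 column (2.1 × 50 mm, 1.8 μm) with water and acetonitrile, each containing 0.1% formic acid. A coupled quadrupole time-of-flight mass spectrometer operated in positive and negative ionization mode. Retention time values come from computationally picked adduct peaks, each inspected manually.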

| RP-LC retention time [s] | Structure (SMILES) |
| --- | --- |
| 627 | c1ccc(N2CCN(Cc3cccn3-c3nnc(N4CCCCC4)s3)CC2)nc1 |
| 662 | CN(CCCNC(=O)c1sc2ncccc2c1-n1cccc1)Cc1ccccc1 |
| 912 | N#CC1CC(c2ccccc2)Nc2cc(Cl)ccc2N1 (stereo not given) |
| 888 | COc1ccc(CCS(=O)(=O)NCC2CCN(C(=O)Oc3ccccc3)CC2)cc1 |
| 666 | CCOC(=O)CCC(=O)NCC1CN(c2ccc(F)cc2)C(=O)O1 (stereo not given) |
| 602 | O=C(NCCCN1CCCC1=O)C1CCN(c2ncnc3c2oc2ccccc23)CC1 |
| 775 | CCc1cccc(C)c1NC(=O)C1CCCN(c2nnc(C)c3c(C)n(-c4ccccc4)nc23)C1 (stereo not given) |
| 793 | Cc1ccc(CNC(=O)c2cc(C)no2)cc1 |
| 587 | O=C(CCc1c(-c2ccc(Cl)cc2)nc2ccccn12)N1CCOCC1 |
| 674 | NC(=O)C1CCN(C(=O)c2cc(-c3ccccc3Cl)on2)CC1 |
| 1200 | CCOc1ccc(NS(=O)(=O)c2ccccc2-c2nc(-c3ccc(F)cc3)no2)cc1 |
| 676 | O=C(c1cn(-c2ccc(-c3nc(C4CC4)no3)cn2)cn1)N1CCCC1 |
| 852 | Cc1cc2c(=O)n(CC(=O)Nc3ccc(Cl)cc3)ccc2s1 |
| 815 | CCOC(=O)c1[nH]c(C)c(CCC(=O)N2CCC(C(=O)NCc3ccc(SC)cc3)CC2)c1C |
| 1020 | CCc1nc2sc(C(C)C)nn2c1S(=O)(=O)N1CCCCC1 |
| 886 | Cc1ccc(C(=O)NC2(c3nc(C)no3)CCCCC2)cc1 |
| 1090 | CCc1noc(-c2nc(-c3ccc(F)c(F)c3)no2)n1 |
| 913 | CCS(=O)(=O)N1CC(=O)N(c2cccc(Cl)c2C)C(C)(C(=O)NCc2ccc(F)cc2)C1 (stereo not given) |
| 613 | O=C(c1ccc(F)cc1F)N1CCN(c2nc(CN3CCCC3)cs2)CC1 |
| 1130 | Cc1nn(CC(=O)N2CCC(C)CC2)c(=O)c2c(-n3cccc3)n(-c3ccc(Cl)cc3)nc12 |
| 731 | Cc1nc2c(c(C)nn2C(C)(C)C)c(C)c1CCC(=O)N1CCN(c2ccccn2)CC1 |
| 701 | CCCn1c2ccccc2c2cnn(CC(=O)NCCN3CC(C)CC(C)C3)c(=O)c21 (stereo not given) |

| RP-LC retention time [s] | Structure (SMILES) |
| --- | --- |
| 597 | COc1ccc(CN2CCc3nc(N4CCOCC4)ncc3C2)c(OC)c1OC |
| 696 | CCn1cc(CC(=O)Nc2ccc(OC)cc2)c2cccnc21 |
| 609 | COc1ccc(-c2nc3cnccn3c2Nc2ccc(C(=O)N3CCOCC3)cc2)cc1OC |
| 602 | CCN1CCN(c2cc(C)c3cc(NC(=O)CSc4ccccc4)ccc3n2)CC1 |
| 654 | Cc1nn(C)c(C)c1CNC(=O)CN1C(=O)C2CCCCN2c2ccc(C(=O)N3CCCC3)cc21 (stereo not given) |
| 1090 | O=C(Nc1ccc(OC(F)(F)F)cc1)C1CCCN(c2ccc(=O)n(-c3cccc(Cl)c3)n2)C1 (stereo not given) |
| 1120 | O=S(=O)(NC1CCCCC1)c1ccc(-c2cc(C(F)(F)F)on2)o1 |
| 853 | CC(C)NC(=O)N1CCC(CCOc2ccccc2F)C1 (stereo not given) |
| 571 | O=C(CN1CCC(COCc2ccccc2)CC1)NCc1ccco1 |
| 1230 | CCCOc1nc2ccccc2nc1N1CCCC(C(=O)NC(C)c2ccccc2)C1 (stereo not given) |
| 839 | CCc1csc(-c2ccc(N3CCN(C(=O)c4ccc(OC)c(OC)c4)CC3)nc2)n1 |
| 592 | Cc1ccc(CN2C[C@@H](CO)[C@H](c3nc(C)no3)C2)cc1 |
| 816 | Cc1nc(-c2ccc(C(=O)N3CCC(C(=O)N4CCc5ccccc54)CC3)cc2)no1 |
| 660 | Cc1ccc2nc(C(=O)NCc3ccc(C)o3)cn2c1 |
| 909 | CCCOc1ccc(C(=O)Nc2nnc(C3CC(=O)N(c4ccc(Cl)cc4)C3)o2)cc1 (stereo not given) |
| 780 | CCOCCCNC(=O)c1cc2n(n1)CCCN(Cc1cccc(C)c1)C2=O |
| 919 | COc1ccc(N2CCN(c3ncc(S(=O)(=O)c4ccc(C)cc4)c(N)n3)CC2)cc1 |
| 689 | N#CC[C@@H](C1CCCC1)n1cc(-c2ncnc3[nH]ccc23)cn1 |
| 722 | COc1ccc(C(=O)CC2(O)C(=O)Nc3ccc(C)cc32)c(OC)c1OC (stereo not given) |
| 641 | CCn1nccc1C(=O)Nc1nnc(-c2ccsc2)o1 |
| 591 | Cn1ncc2c3ccccc3n(CC(=O)N3CCN(c4ccccn4)CC3)c2c1=O |
| 855 | CCC(=O)Nc1ccc(-n2cnc(C(=O)N3CCN(c4cccc(C)c4C)CC3)c2)nc1 |

| RP-LC retention time [s] | Structure (SMILES) |
| --- | --- |
| 1120 | O=C(Nc1nc(-c2ccc3c(c2)OCCO3)cs1)c1cc(Cl)sc1Cl |
| 1080 | Cc1ccc(Sc2nccnc2N2CCCC(C(=O)NCc3ccc(C)o3)C2)cc1 (stereo not given) |
| 840 | O=C1CCc2cc(S(=O)(=O)NCCc3ccccc3)cc3c2N1CCC3 |
| 574 | O=C(CN1C(=O)CCC1=O)N1CC(c2nc(-c3cnccn3)no2)C1 |
| 968 | CCOc1ccccc1CNC(=O)C1CCCN(c2ccc(=O)n(-c3cccc(Cl)c3)n2)C1 (stereo not given) |
| 872 | Cc1ccc(NC(=O)N2CCCC2c2c(C)noc2C)c(Cl)c1 (stereo not given) |
| 682 | O=C(CN1CCN(Cc2ccccc2)C1=O)NCC1CCCCC1 |
| 885 | Cn1c(=O)sc2cc(S(=O)(=O)N3CCC(C(=O)Nc4cccc(F)c4)CC3)ccc21 |
| 628 | CCc1cc(=O)n(CC(=O)N(CC)c2ccccc2)c(N)n1 |
| 560 | CCOc1ccc(CN2CC(N(Cc3ccncc3)S(C)(=O)=O)C2)cc1 |
| 1030 | Cc1ccccc1-c1noc(Cn2c(=O)n(-c3ccccc3F)c(=O)c3sccc32)n1 |
| 872 | CC(C)CNC(=O)C1CCCN(c2nccn3nc(-c4ccccc4Cl)cc23)C1 (stereo not given) |
| 796 | CSc1ccc(Cl)c(C(=O)N2CC(=O)Nc3ccccc32)c1 |
| 652 | O=C(c1ccc(F)c(F)c1)N1CCc2[nH]cnc2C1c1ccccc1 (stereo not given) |
| 865 | O=C(CCC(=O)N1CC2CCCN2c2ccccc21)NCc1cccs1 (stereo not given) |
| 782 | Cc1cccnc1NC(=O)C1c2ccccc2C(=O)N(Cc2ccccc2)C12CCCC2 (stereo not given) |
| 814 | Cc1ccc(NC(=O)Cc2ccc(S(C)(=O)=O)cc2)c(C(=O)c2ccccc2)c1 |
| 906 | Cc1cc(S(=O)(=O)NCC(c2cccs2)S(=O)(=O)c2ccccc2)ccc1F (stereo not given) |
| 672 | Cc1c(NC(=O)C2CCN(S(=O)(=O)Cc3ccccc3)CC2)c(=O)n(-c2ccccc2)n1C |
| 673 | O=C(c1ccc(S(=O)(=O)c2ccc(Br)cc2)nc1)N1CCN(c2ccccn2)CC1 |
| 862 | Cc1ccc(NC(=O)Nc2nc(CC(=O)Nc3ccc(F)c(F)c3)cs2)cc1 |
| 1030 | COc1ccc(C2CC(=O)N(c3ccc(C(C)C)cc3)C(=O)C2)cc1 |

| RP-LC retention time [s] | Structure (SMILES) |
| --- | --- |
| 625 | CCc1nnc(-c2nnc(N3CCCC3)c3ccccc23)o1 |
| 710 | O=C(c1ccoc1)N1CCCC(c2nc(-c3ccc(F)cc3)n[nH]2)C1 (stereo not given) |
| 1000 | CCCCNC(=O)COc1c(C)cc(Br)cc1C |
| 783 | CC1Oc2ccc(-c3csc(NC(=O)c4ccco4)n3)cc2NC1=O (stereo not given) |
| 1230 | Cc1cccc(-c2noc(C3CCCN3S(=O)(=O)c3ccc(Br)cc3)n2)c1 (stereo not given) |
| 702 | O=C(O)c1cc(N2CCCN(c3ncccn3)CC2)ccc1NC(=O)C1CC1 |
| 611 | Cc1nccn1C1CN(C(=O)CCCc2c[nH]c3ccccc23)C1 |
| 846 | O=S(=O)(c1ccccc1Cl)N1CCN(Cc2cccc(F)c2)C2(CCOCC2)C1 |
| 913 | O=C(c1ccccc1Br)N1CCN(c2cc(-c3ccc(Cl)cc3)[nH]n2)CC1 |
| 683 | Cc1nn(C)cc1S(=O)(=O)NCCc1c[nH]c2ccccc12 |
| 735 | Cc1ccc(CNC(=O)Cn2ccc3c(SCc4ccc(F)cc4)nccc32)o1 |
| 674 | CCc1ccccc1NC(=O)Cn1c(N2CCOCC2)nc(C)cc1=O |
| 566 | CCn1cc(CCN2CCC(C(=O)N3CCOCC3)CC2)c2cccnc21 |
| 762 | CCOC(=O)c1oc2ccccc2c1NC(=O)C1CCN(S(C)(=O)=O)CC1 |
| 883 | O=S(=O)(Nc1ccccc1)c1ccc(-c2nnc(C3CCC3)o2)o1 |
| 657 | Cc1ccc(S(=O)(=O)c2ccc(N3CCN(c4ccccn4)CC3)nn2)cc1C |
| 647 | Cc1cc(C)c(S(=O)(=O)NCCn2c(C)cnc2C2CC2)c(C)c1 |
| 883 | CCn1nccc1-c1cccc(-c2noc(-c3cnccn3)n2)c1 |
| 687 | COc1ccc2c(=O)c(Oc3ccc(C(=O)NC4CCS(=O)(=O)C4)cc3)coc2c1 (stereo not given) |
| 626 | CN1CCCC1c1nc(C2CN(S(=O)(=O)Cc3ccccc3F)C2)no1 (stereo not given) |
| 848 | COc1ccc(S(=O)(=O)N2CCN(c3cc(C)nc(NC4CCCCC4)n3)CC2)cc1C |
| 852 | Cc1ccc(NC(=O)Cc2c(C)nn(-c3nc(-c4ccc(Cl)cc4)cs3)c2C)cc1C |

| Structure (SMILES) | RP-LC retention time [s] |
| --- | --- |
| O=C(Nc1ccccc1)N1[C@H]2CC[C@@H]1c1cncnc1C2 | 651 |
| COC1=CC(=O)O[C@H](/C=C/c2ccc3c(c2)OCO3)C1 | 809 |
